What was measured:
Type in all cases: cell-based, Echinococcus canadensis
Eca-5-HT1a [1] = tested on: T1, Eca-5-HT1a; assay: FLIPR calcium assay (Fluo-4), HEK293-GNA15 cells transiently expressing the receptor; a stable line gave EC50 […]
T1 construct: full-length, human codon optimized cDNA in HEK293-GNA15 cells

Eca-5-HT1a [2] = tested on: T2, Eca-5-HT1a; assay: FLIPR calcium assay on mutant receptor
T2 construct: full-length mutant in HEK293-Gα15 cells

Eca-5-HT1a [3] = assay: FLIPR calcium assay, agonist concentration-response

Compound	EC50 (Eca-5-HT1a [1])	EC50 (Eca-5-HT1a [2])	EC50 (Eca-5-HT1a [3])
NCCc1c[nH]c2ccc(O)cc12 [serotonin]	7.74 ± 0.63 nM	11500 nM	–
CC(N)Cc1c[nH]c2ccc(O)cc12 (stereo not drawn) [α-MTS, α-methylserotonin]	–	–	2730 ± 730 nM
COc1ccc2[nH]cc(CCN)c2c1 [5-MTT, 5-methoxytryptamine]	–	–	98 ± 50 nM

— article PMC8584985, “Characterization of a new type of neuronal 5-HT G- protein coupled receptor in the cestode nervous system” (PLoS ONE, 2021)
